Measurements: patent US6225321A (priority 1997, dated 2001)
“And” between values parts separate entries of the source, which are not always exact repeats. Equal values may be shown once. Read-outs that look alike come from different tables or passages of the source.

Legend:
[1] = Half-life / conversion of dinalbuphine sebacoyl ester in dog blood; assay type: in vitro ADME; details: for Elimination half-life: n = 3, mean ± S.E.
Method: (a) Dinalbuphine sebacoyl ester was dissolved in acetonitrile, the concentration was 12.5 mg/ml.
(b) 200 ml of whole blood collected from rats given dinalbuphine sebacoyl ester, and anticoagulant was added.

human body = assay: Analgesic duration of sebacoyl dinalbuphine calculated for the human body; assay type: in vivo; details: 125 μM/23 kg
Method: Therefore, the analgesic effect could be calculated on 4-5 days at 125 μM/23 kg to human body for sebacoyl dinalbuphine.
Besides, such parenteral volume was not ideal for a single dose. However, this invention made a development. By diluting a single dose of sebacoyl dinalbuphine in 7.15 ml sesame oil form, parenteral administration could give the analgesic effect maintained 4 to 5 days. In other words, the analgesic effect was extended […] for a single dose of intramuscularly injected sebacoyl dinalbuphine at only 7 ml oil vehicle.

[2] = Half-life / conversion of dinalbuphine sebacoyl ester in rat blood; assay type: in vitro ADME; details: for Elimination half-life: n = 3, mean ± S.E.
Method: (a) Dinalbuphine sebacoyl ester(SDN) was dissolved in acetonitrile, the concentration was 7.75 mg/ml.
(b) […] of whole blood was collected from rats given dinalbuphine sebacoyl ester, and anticoagulant was added.

[3] = Half-life / conversion of dinalbuphine sebacoyl ester in human blood; assay type: in vitro ADME; details: for Elimination half-life: n = 3, mean ± S.E.
Method: IV. For Human Experiments
(a) Dinalbuphine sebacoyl ester was dissolved in acetonitrile, the concentration was 10 mg/ml.
(b) 250 ml of whole blood collected from rats given dinalbuphine sebacoyl ester, and anticoagulant was added.

[4] = Half-life / conversion of dinalbuphine sebacoyl ester in rabbit blood; assay type: in vitro ADME; details: for Elimination half-life: n = 3, mean ± S.E.
Method: II. For Rabbit Experiments
(a) Dinalbuphine ester sebacoyl ester was dissolved in acetonitrile, the concentration was 5.2 mg/ml.
(b) 150 ml of whole blood collected from rats given dinalbuphine sebacoyl ester, and anticoagulant was added.

[5] = Pharmacokinetic study of long acting preparation in Beagle dogs; assay type: in vivo, Beagle dog; details: for CL/F: read-out: CLt (converted); for Vd/F: read-out: Vss
Method: Six Beagle dogs were used. Five Beagle dogs were intramuscularly injected with 30 mg/kg long acting sebacoyl dinalbuphine ester parenteral administration respectively, and another one was injection with 100 mg/kg long acting sebacoyl dinalbuphine ester oily parenteral administration. Blood samples were collected through the vein in front limb of dogs at 1, 2, 6, 24, 30, 48, 54, 72, 78, 96, 102, 120, 168, 192 hours. […] Relationship between time and concentration was analyzed by PCNONLIN computer program. Two compartment model and pharmacokinetic parameters were calculated to depicted absorption, distribution, metabolism, and excretion of drugs in dogs.

[6] = Table 7, Dog 2, Dose 24.3 mg/kg
[7] = Table 7, Dog 2, Dose 81.0 mg/kg
[8] = dog, plasma, im, 24.3 mg/kg, Table 7, Dog 2, Dose 24.3 mg/kg
[9] = dog, plasma, im, 30 mg/kg, Mean of 5 dogs, 30 mg/kg i.m.
[10] = dog, plasma, im, 81 mg/kg, Table 7, Dog 2, Dose 81.0 mg/kg
[11] = individual Dog 1 to Dog 5, lines in this order, 30 mg/kg i.m., listed as SDN, 30 mg/kg

O=C(CCCCCCCCC(=O)Oc1ccc2c3c1O[C@H]1[C@@H](O)CC[C@@]4(O)[C@@H](C2)N(CC2CCC2)CC[C@]314)Oc1ccc2c3c1O[C@H]1[C@@H](O)CC[C@@]4(O)[C@@H](C2)N(CC2CCC2)CC[C@]314 [sebacoyl dinalbuphine ester]
Elimination half-life ([1]; dog plasma): 0.463 ± 0.0083 h
Elimination half-life ([1]; dog red blood cell): 0.557 ± 0.0233 h
Elimination half-life ([1]; dog whole blood): 0.508 ± 0.013 h
converted time of 90% into Nalbuphine ([1]; dogs): 95 min
half life ([1]; dogs, HPLC): 0.463 h
duration of analgesic effect calculated for human body (human body): 4 to 5 days
Elimination half-life ([2]; rat plasma): 2.8 min
Elimination half-life ([2]; rat red blood cell): 2.3 ± 0.6 min
Elimination half-life ([2]; rat whole blood): 2.2 ± 0.5 min
converted time of 90% into Nalbuphine ([2]; rats): 10 min
half life ([2]; rats, HPLC): 2.8 min
Elimination half-life ([3]; human plasma): 9.0 ± 0.4 min
Elimination half-life ([3]; human red blood cell): 7.7 ± 0.4 min
Elimination half-life ([3]; human whole blood): 8.8 ± 0.4 min
converted time of 90% into Nalbuphine ([3]; humans): 30 min
half life ([3]; humans, HPLC): 9.0 min
Elimination half-life ([4]; rabbit plasma): 0.116 ± 0.0005 h
Elimination half-life ([4]; rabbit red blood cell): 0.437 ± 0.08 h
Elimination half-life ([4]; rabbit whole blood): 0.248 ± 0.0217 h
converted time of 90% into Nalbuphine ([4]; rabbits): 25 min
half life ([4]; rabbits, HPLC): 7.0 min
A ([5]; Mean of 5 dogs, 30 mg/kg i.m.): 15.0 µg/mL
AUMC ([5]; Mean of 5 dogs, 30 mg/kg i.m.): 983.2 h^2 μg/ml
Abs. time ([5]; Mean of 5 dogs, 30 mg/kg i.m.): 92.6 h
B ([5]; Mean of 5 dogs, 30 mg/kg i.m.): 0.32 µg/mL
Vc ([5]; Mean of 5 dogs, 30 mg/kg i.m.): 14.84 L/kg
k12 ([5]; Mean of 5 dogs, 30 mg/kg i.m.): 8.51 h⁻¹
k21 ([5]; Mean of 5 dogs, 30 mg/kg i.m.): 0.28 h⁻¹
ko ([5]; Mean of 5 dogs, 30 mg/kg i.m.): 180.6 µg/kg/h
α ([5]; Mean of 5 dogs, 30 mg/kg i.m.): 9.98 h⁻¹
A [5, 6]: 14.1 µg/mL
AUC/D [5, 6]: 0.478 kg·h/mL
AUMC [5, 6]: 915 h^2 ng/ml
Abs. time [5, 6]: 95.6 h
B [5, 6]: 0.22 µg/mL
Vc [5, 6]: 10.21 L/kg
k12 [5, 6]: 5.53 h⁻¹
k21 [5, 6]: 0.13 h⁻¹
ko [5, 6]: 149.9 µg/kg/h
α [5, 6]: 6.85 h⁻¹
A [5, 7]: 59.0 µg/mL
AUC/D [5, 7]: 0.488 kg·h/mL
AUMC [5, 7]: 5026 h^2 ng/ml
Abs. time [5, 7]: 168.0 h
B [5, 7]: 0.51 µg/mL
Vc [5, 7]: 10.21 L/kg
k12 [5, 7]: 8.99 h⁻¹
k21 [5, 7]: 0.11 h⁻¹
ko [5, 7]: 354.2 µg/kg/h
α [5, 7]: 10.73 h⁻¹
AUC [5, 8]: 11900 ng·h/mL
CL/F [5, 8]: 1.21 mL/h/kg
bioavailability ([5]; dog, plasma, im, 24.3 mg/kg, Table 7, Dog 2, Dose 24.3 mg/kg, read-out: F): 59%
MRT ([5]; dog, plasma, im, 24.3 mg/kg, Table 7, Dog 2, Dose 24.3 mg/kg, read-out: MRT): 78.8 h
Vd/F [5, 8]: 450 L/kg
k el ([5]; dog, plasma, im, 24.3 mg/kg, Table 7, Dog 2, Dose 24.3 mg/kg, read-out: k10 (converted)): 0.000336 s⁻¹
half-life ([5]; dog, plasma, im, 24.3 mg/kg, Table 7, Dog 2, Dose 24.3 mg/kg, read-out: t1/2,α (converted)): 0.1 h
half-life ([5]; dog, plasma, im, 24.3 mg/kg, Table 7, Dog 2, Dose 24.3 mg/kg, read-out: t1/2,β (converted)): 30.6 h
k el ([5]; dog, plasma, im, 24.3 mg/kg, Table 7, Dog 2, Dose 24.3 mg/kg, read-out: β (converted)): 6.39e-06 s⁻¹
AUC [5, 9]: 13600 ng·h/mL
CL/F [5, 9]: 1.22 mL/h/kg
Cmax ([5]; dog, plasma, im, 30 mg/kg, Mean of 5 dogs, 30 mg/kg i.m., read-out: Cmax): 149 ng/mL
bioavailability ([5]; dog, plasma, im, 30 mg/kg, Mean of 5 dogs, 30 mg/kg i.m., read-out: F): 63.1%
MRT ([5]; dog, plasma, im, 30 mg/kg, Mean of 5 dogs, 30 mg/kg i.m., read-out: MRT): 73.2 h
Vd/F [5, 9]: 574 L/kg
k el ([5]; dog, plasma, im, 30 mg/kg, Mean of 5 dogs, 30 mg/kg i.m., read-out: k10 (converted)): 0.000339 s⁻¹
half-life ([5]; dog, plasma, im, 30 mg/kg, Mean of 5 dogs, 30 mg/kg i.m., read-out: t1/2,α (converted)): 0.09 h
half-life ([5]; dog, plasma, im, 30 mg/kg, Mean of 5 dogs, 30 mg/kg i.m., read-out: t1/2,β (converted)): 27.7 h
k el ([5]; dog, plasma, im, 30 mg/kg, Mean of 5 dogs, 30 mg/kg i.m., read-out: β (converted)): 8.33e-06 s⁻¹
AUC ([5]; dog, plasma, im, 30 mg/kg, individual Dog 1 to Dog 5, lines in this order, 30 mg/kg i.m.): 9730 ng·h/mL
MRT ([5]; dog, plasma, im, 30 mg/kg, individual Dog 1 to Dog 5, lines in this order, 30 mg/kg i.m., read-out: MRT): 84.3 h
AUC [5, 10]: 36200 ng·h/mL
CL/F [5, 10]: 1.64 mL/h/kg
Cmax ([5]; dog, plasma, im, 81 mg/kg, Table 7, Dog 2, Dose 81.0 mg/kg, read-out: Cmax): 204 ng/mL
bioavailability ([5]; dog, plasma, im, 81 mg/kg, Table 7, Dog 2, Dose 81.0 mg/kg, read-out: F): 73.4%
MRT ([5]; dog, plasma, im, 81 mg/kg, Table 7, Dog 2, Dose 81.0 mg/kg, read-out: MRT): 127 h
Vd/F [5, 10]: 861 L/kg
k el ([5]; dog, plasma, im, 81 mg/kg, Table 7, Dog 2, Dose 81.0 mg/kg, read-out: k10 (converted)): 0.000456 s⁻¹
half-life ([5]; dog, plasma, im, 81 mg/kg, Table 7, Dog 2, Dose 81.0 mg/kg, read-out: t1/2,α (converted)): 0.07 h
half-life ([5]; dog, plasma, im, 81 mg/kg, Table 7, Dog 2, Dose 81.0 mg/kg, read-out: t1/2,β (converted)): 41.9 h
k el ([5]; dog, plasma, im, 81 mg/kg, Table 7, Dog 2, Dose 81.0 mg/kg, read-out: β (converted)): 4.72e-06 s⁻¹
bioavailability ([5]; dog, plasma, im, Beagle dogs, intramuscular, read-out: bioavailability): ~63%
half-life ([5]; dog, plasma, im, Beagle dogs, intramuscular, read-out: half life for excretion (converted)): ~30 h
A [5, 11]: 20.9 μg/ml and 14.1 μg/ml (2×) and 9.5 μg/ml and 16.5 μg/ml
AUMC [5, 11]: 934.4 h^2 μg/ml and 915.0 h^2 μg/ml and 886.2 h^2 μg/ml and 1217.4 h^2 μg/ml and 1063.0 h^2 μg/ml
Abs. time [5, 11]: 164.5 h and 95.6 h (2×) and 49.3 h and 58.0 h
B [5, 11]: 0.46 µg/mL and 0.22 µg/mL and 0.32 µg/mL and 0.36 µg/mL and 0.21 µg/mL
Cmax [5, 11]: 59 ng/mL and 112 ng/mL and 197 ng/mL and 255 ng/mL and 123 ng/mL
F [5, 11]: 87.9% and 40.4% and 59.6% and 68.8%
MRT [5, 11]: 61.1 h and 62.7 h and 79.1 h
Vc [5, 11]: 13.88 L/kg and 10.21 L/kg and 14.95 L/kg and 10.65 L/kg and 24.50 L/kg
Vss [5, 11]: 360.9 L/kg and 428.1 L/kg and 303.6 L/kg and 1325 L/kg
k12 [5, 11]: 6.16 h⁻¹ and 5.53 h⁻¹ and 21.55 h⁻¹ and 3.89 h⁻¹ and 5.43 h⁻¹
k21 [5, 11]: 0.25 h⁻¹ and 0.13 h⁻¹ and 0.78 h⁻¹ and 0.14 h⁻¹ and 0.10 h⁻¹
ko [5, 11]: 129.9 µg/kg/h and 149.9 µg/kg/h and 199.1 µg/kg/h and 249.5 µg/kg/h and 174.9 µg/kg/h
t1/2,β [5, 11]: 10.94 h and 30.61 h and 28.64 h and 30.99 h and 37.26 h
α [5, 11]: 8.54 h⁻¹ and 6.85 h⁻¹ and 23.02 h⁻¹ and 4.76 h⁻¹ and 6.74 h⁻¹
order of absorption ([5]; injection oil vehicle, intramuscular): zero order
kinetic linearity with dose ([5]; two doses in the same dog): linear kinetic
